Literature values in US20180125800A1, “Stable Formulation for Parenteral Administration of Tapentadol” (Gruenenthal GmbH, priority 2015, published 2018).

Settings: more pronounced at higher pH values

CC[C@@H](c1cccc(O)c1)[C@@H](C)CN(C)C [Tapentadol, (1R,2R)-3-(3-dimethylamino-1-ethyl-2-methyl-propyl)-phenol]
antimicrobial properties: exhibits antimicrobial properties
